Legend:
[1] = test system: pancreatic carcinoma cells (DAN-G); experiment: Apoptosis in pancreatic carcinoma cells; format: cell-based; details: comparable experiments
Experimental: In contrast to conventional glucocorticoids, the steroid WIL 071 can induce apoptosis also in pancreatic carcinoma cells.
The DNA fragmentation was measured by flow cytometry, see FIG. 11. The experiments were performed in triplicate. The error bars show the standard deviations of the measured values of three independent experiments.
The standard treatment for pancreatic carcinoma includes 5-fluorouracil.

Nalm-6 cells = experiment: Half-maximal apoptosis induction (AC50) in Nalm-6 cells; format: cell-based; details: Homo sapiens; Nalm-6, 72 h, flow cytometry; read-out: Biological effect: half-maximal apoptosis induction (AC50)
Experimental: Apoptosis Induction in Nalm-6 Cells after Treatment with WIL-071 or Different Steroid Derivatives.
(§1) The cells were incubated in 6-well plates with 1.0·10^5 cells/mL in two milliliters of medium with the respective steroid derivative in different concentrations. The included solvent control (DMSO) served as a control, which was subtracted from all the other measured values, in order not to take into account the spontaneous apoptosis of the cells that takes place independently of the concentration of active ingredient. After 72 h, a modified cell cycle analysis was performed, in order to quantify the proportion of apoptotic cells by flow cytometry. For each concentration of the steroid, the respective mean values f standard deviations, n=3 (*: p<0.05 vs. DMSO, t test) were determined. Using the curve of the dose-effect relationship (steroid concentration−apoptosis induction) formed from these measured values, the steroid concentration at which apoptosis was triggered in 50% of the tested leukemia cells was read.

[2] = test system: prednisolone-resistant leukemia cells; experiment: Overcoming of prednisolone resistance; format: cell-based; details: 72 h
Experimental: as §1
Prednisolone resistance is said to be overcome if the induction of apoptosis in prednisolone-resistant leukemia cells is as high as it is in normal leukemia cells.

[3] = Distribution in serum, brain and liver after injection; format: in vivo, NOG-F (Taconic) mice
Experimental: Following the determination of the MTD, eight animals were again injected the MTD of the substances, and after 1, 2, 8 and 24 hours, 2 animals each were killed. For pharmacokinetics, the liver, brain and serum of the animals were shock-frosted in liquid nitrogen, and analyzed (see Example 15).
The samples obtained in Example 4 were examined for the contents of the substances. Since WIL-369 can be hydrolyzed to WIL-071, both WIL-369 and WIL-071 were determined in the samples. As far as these substances were detectable in the samples, this is represented in the Figures.

[4] = format: physicochemical
Experimental: All three substances are sparingly soluble in tested injection solutions, so that the maximal dose could not exceed 200 mg/kg.
(§2) For the MTD experiment, Wil-071 was dissolved in 100% DMSO, and then diluted 1:50 with a 20% (w/v) 2-hydroxypropyl-beta-cyclodextrin (HPβCD) solution. Thus, 200 μL of injection solution (per mouse) of a 40 mg/kg dose could be achieved. For 80, 100 and 150 mg/kg, the DMSO proportion was increased to up to 4% (v/v) in the final injection solution. In addition, ultrasound had to be employed, and the sample had to be heated at 60° C. for up to 45 min. 200 mg/kg was reached only as a milky suspension. […] Therefore, Wil-071 can be considered non-toxic up to 150 mg/kg. The final MTD could not be determined because of the insufficient solubility.
For 100 mg/kg of Wil-232, the end concentration of DMSO in the injection solution was 2%. In order to dissolve Wil-232, the sample also had to be treated with ultrasound, and heated at 60° C. The dose of 150 mg/kg was achieved only with 4% DMSO, and 200 mg/kg was achieved only as a suspension. […] In this case too, a final MTD cannot be determined because of insufficient solubility.
Using a DMSO stock and 20% HPβCD solution, a maximum of only 5 mg/ml was dissolved. […] In this case too, a final MTD cannot be determined because of insufficient solubility.

[5] = Tolerability (dose escalation, MTD) in an animal model; format: in vivo, NOG-F (Taconic) mice
Experimental: An incremental increase of dose of the three substances Wil-071, Wil-232 and Wil-369 was performed in 8-week-old female NOG-F (Taconic) mice. Different mice were administered one of up to seven different doses of the test substances. The start was on day 1 with the lowest dose of 10 mg/kg. […] All in all, if possible, the doses 10, 20, 40, 80, 100, 150 and 200 mg/kg are tested. Subsequently, the maximum tolerable dose (MTD) was administered to three more animals, and these were subsequently observed for one week, in order to be able to observe any developing symptoms. For this purpose, the animals were observed and weighed on a daily basis. The body weight is considered an indicator of the general condition of the animals.
as §2
For 100 mg/kg of Wil-232, the end concentration of DMSO in the injection solution was 2%. In order to dissolve Wil-232, the sample also had to be treated with ultrasound, and heated at 60° C. The dose of 150 mg/kg was achieved only with 4% DMSO, and 200 mg/kg was achieved only as a suspension. […] Otherwise, there were no signs of toxicity, so that the substance can be considered tolerable up to 150 mg/kg. In this case too, a final MTD cannot be determined because of insufficient solubility.
Using a DMSO stock and 20% HPβCD solution, a maximum of only 5 mg/ml was dissolved. A further increase could not be achieved even with more DMSO or HPβCD. Thus, above the dose of 40 mg/kg, a higher injection volume was injected in order to reach the corresponding dose. […] For the tolerability under the current solubility conditions, a value of […] is to be applied. This dose was injected into the 8 animals for pharmacokinetics. In this case too, a final MTD cannot be determined because of insufficient solubility.

| SMILES | AC50 (Nalm-6 cells) | EC50 [2] | also measured |
| --- | --- | --- | --- |
| O=c1[nH]cc(F)c(=O)[nH]1 [5-fluorouracil] | – | – | apoptosis ([1]; at 30 μM): 24.9%; apoptosis ([1]; at 50 μM): 21.2% |
| O=C1[O][Pt]2([NH][C@@H]3CCCC[C@H]3[NH]2)[O]C1=O [Oxaliplatin] | – | – | apoptosis ([1]; at 50 μM): 14% |
| CC(C)CCC[C@@H](C)[C@H]1CC[C@H]2[C@@H]3[C@H]4OC[C@@]5(CC[C@H](OS(C)(=O)=O)C[C@]5(O)C4=O)[C@H]3CC[C@]12C [TAS-S389, (7β,19-epoxy-5α-hydroxy-6-on-cholestan-3β-yl) ester of methanesulfonic acid] | ~20 µM | ~30 µM | – |
| CC(C)CCC[C@@H](C)[C@H]1CC[C@H]2[C@@H]3[C@H]4OC[C@@]5(CC=CC[C@]5(O)C4=O)[C@H]3CC[C@]12C [TAS-S392, 7β,19-epoxy-5α-hydroxy-cholest-2-en-6-one] | ~46 µM | ~39 µM | – |
| CC(C)CCC[C@@H](C)[C@H]1CC[C@H]2[C@@H]3[C@H]4OC[C@@]5(CCCC[C@]5(O)C4=O)[C@H]3CC[C@]12C [TAS-S398, 7β,19-epoxy-5α-hydroxy-cholestan-6-one] | ~80 µM | ~67 µM | – |
| C=C1[C@@H]2OC[C@@]3(CC[C@H](O)C[C@]13O)[C@H]1CC[C@]3(C)[C@@H]([C@H](C)CCCC(C)C)CC[C@H]3[C@H]21 [TAS-S399, 7β,19-epoxy-6-methylen-cholest-3β,5α-diol] | 50 µM | ~75 µM | – |
| CC(C)CCC[C@@H](C)[C@H]1CC[C@H]2[C@@H]3[C@H]4OC[C@@]5(CC[C@@H](O)C[C@]5(O)C4=O)[C@H]3CC[C@]12C [TAS-S403, 3α,5α-dihydroxy-7β,19-epoxy-cholestan-6-one] | 100 µM | 20 µM | – |
| CC(=O)O[C@@H]1CC[C@@]23CO[C@@H](C(=O)[C@@]2(O)C1)[C@H]1[C@@H]2CC[C@H]([C@H](C)CCCC(C)C)[C@@]2(C)CC[C@@H]13 [TAS-S405, 3α-acetoxy-5α-hydroxy-7β,19-epoxy-cholestan-6-one] | 90 µM | ~20 µM | – |
| CC(C)CCC[C@@H](C)[C@H]1CC[C@H]2[C@@H]3[C@H]4OC[C@@]5(CC[C@H](O)C[C@]5(O)C4(C)O)[C@H]3CC[C@]12C (stereo partly drawn) [TAS-S406, 7β,19-epoxy-6α-methylcholestan-3β,5α,6β-triol] | 13 µM | ~17 µM | – |
| COC(=O)O[C@H]1CC[C@@]23CO[C@@H](C(=O)[C@@]2(O)C1)[C@H]1[C@@H]2CC[C@H]([C@H](C)CCCC(C)C)[C@@]2(C)CC[C@@H]13 [WIL357, 7β,19-epoxy-5α-hydroxy-6-on-cholestan-3β-yl-methyl carbonate] | > 50 µM | > 50 µM | – |
| CC(C)CCC[C@@H](C)[C@H]1CC[C@H]2[C@@H]3[C@H]4OC[C@@]5(CC[C@H](OC(=O)CNC(=O)OC(C)(C)C)C[C@]5(O)C4=O)[C@H]3CC[C@]12C [WIL360, N-Boc-glycin (7β,19-epoxy-5α-hydroxy-6-on-cholestan-3β-yl) ester] | > 20 µM | 20 µM | – |
| CC(C)CCC[C@@H](C)[C@H]1CC[C@H]2[C@@H]3[C@H]4OC[C@@]5(CC[C@H](OC(=O)CO)C[C@]5(O)C4=O)[C@H]3CC[C@]12C [WIL364, (7β,19-epoxy-5α-hydroxy-6-on-cholestan-3β-yl) ester of glycolic acid] | ~18 µM | ~17.5 µM | – |
| C=C(CC(=O)O[C@H]1CC[C@@]23CO[C@@H](C(=O)[C@@]2(O)C1)[C@H]1[C@@H]2CC[C@H]([C@H](C)CCCC(C)C)[C@@]2(C)CC[C@@H]13)C(=O)OC [WIL367, 4-(7β,19-epoxy-5α-hydroxy-6-on-cholestan-3β-yl)-1-methyl ester of itaconic acid] | ~8 µM | ~12.5 µM | – |
| COC(=O)/C=C/C(=O)O[C@H]1CC[C@@]23CO[C@@H](C(=O)[C@@]2(O)C1)[C@H]1[C@@H]2CC[C@H]([C@H](C)CCCC(C)C)[C@@]2(C)CC[C@@H]13 [WIL369, (7β,19-epoxy-5α-hydroxy-6-on-cholestan-3β-yl)methyl ester of fumaric acid] | ~3 µM | 5 µM | distribution in the liver [3]: a quick degradation takes place in the liver; it is the only place where WIL-369 is found; maximum dissolved concentration [4]: ≤ 5 mg/mL; solubility [4]: lowest solubility; mortality ([5]; 100 mg/kg dose group, one animal): found dead on day 3 after the injection; behaviour after injection ([5]; 100 mg/kg in twice as large injection volumes): the animals lay down on their side for some moments, but recovered quickly; tolerability under the current solubility conditions ([5]; mice, injection): 50 mg/kg |
| CC(=O)O[C@H]1CC[C@@]23CO[C@@H](C(=O)[C@@]2(O)C1)[C@H]1[C@@H]2CC[C@H]([C@H](C)CCCC(C)C)[C@@]2(C)CC[C@@H]13 [WIL-232, 3β-acetoxy-5α-hydroxy-7β,19-epoxy-cholestan-6-one] | 25 µM | 17.5 µM | outcome of injection of the 200 mg/kg suspension ([5]; 200 mg/kg as suspension, signs of pulmonary embolism in section): immediate death of the animal; dose up to which non-toxic / tolerable ([5]; injection into caudal vein, mice, final MTD not determinable because of solubility): up to 150 mg/kg |
| CC(C)CCC[C@@H](C)[C@H]1CC[C@H]2[C@@H]3[C@H]4OC[C@@]5(CCC(=O)C[C@]5(O)C4=O)[C@H]3CC[C@]12C [WIL-241, 5α-hydroxy-7β,19-epoxy-cholestane-3,6-dione] | 41 µM | – | – |
| CC(C)CCC[C@@H](C)[C@H]1CC[C@H]2[C@@H]3[C@H]4OC[C@@]5(CC[C@H](O)C[C@]5(OCc5ccccc5)C4=O)[C@H]3CC[C@]12C [WIL-242b, 5α-benzyloxy-3β-hydroxy-7β,19-epoxy-cholestan-6-one] | 37 µM | 40 µM | – |
| CC(C)CCC[C@@H](C)[C@H]1CC[C@H]2[C@@H]3[C@H]4OC[C@@]5(CCC(=O)C=C5C4=O)[C@H]3CC[C@]12C [WIL-270, 7β,19-epoxy-cholest-4-en-3,6-dione] | 20 µM | 18 µM | – |
| CC[C@H](CC[C@@H](C)[C@H]1CC[C@H]2[C@@H]3[C@H]4OC[C@@]5(CC[C@H](OC(C)=O)C[C@]5(O)C4=O)[C@H]3CC[C@]12C)C(C)C [WIL-DK-08, 3β-acetoxy-5α-hydroxy-7β,19-epoxy-stigmastan-6-one] | 50 µM | ~40 µM | – |
| CC[C@H](CC[C@@H](C)[C@H]1CC[C@H]2[C@@H]3[C@H]4OC[C@@]5(CC[C@H](O)C[C@]5(O)C4=O)[C@H]3CC[C@]12C)C(C)C [WIL-DK-09, 3β,5α-dihydroxy-7β,19-epoxy-stigmastan-6-one] | ~15 µM | ~38 µM | – |

From US20240398836A1, “EPOXY STEROIDS” (priority 2021, published 2024)
